Counter-ions that a name gives are not always drawn.

Experimental findings from US20150272934A1, “USE OF CSE INHIBITORS FOR THE TREATMENT OF CUTANEOUS INJURIES OR CONDITIONS AND SLEEP-RELATED BREATHING DISORDERS” (SOVA PHARMACEUTICALS, INC., priority 2012, published 2015) are described below.

The target of the first assay is human, mouse or rat recombinant CSE (UniProt P32929). The assay can be described thus: CSE In Vitro Assay.
Details: not given
For the compound `CCN(N)c1nnn[nH]1` [Example 2-4], the IC50 is below 10 µM.

`CN(N)c1nnn(C)n1` [Example 2-29, 2-methyl-5-(1-methylhydrazinyl)-2H-tetrazole]: the IC50 is above 100 µM.

Staying with this assay, now noted: […]; species of enzyme not given.
As to `N#CCC(N)c1nnn[nH]1` (stereo not drawn) [Example 1-1, 3-amino-3-(1H-tetrazol-5-yl)propionitrile dihydrochloride], the IC50 was above 100 µM.

As to `COCCN(N)c1nnn[nH]1` [Example 2-6], the IC50 was in the range of 10 to 100 µM.

Regarding `NCCCN(N)c1nnn[nH]1` [Example 2-12, 3-(1-(1H-tetrazol-5-yl)hydrazinyl)propan-1-amine dihydrochloride], the IC50 was below 10 µM.

The same assay, now with this note: recombinant CSE 20 ug/ml, 50 uM PLP, DL-homocysteine substrate, 3 hours 37° C.; species of enzyme not given.
Regarding `C#CC[C@H](N)c1nnn[nH]1` [Example 1-2, (S)-1-(1H-tetrazol-5-yl)-but-3-ynylamine hydrochloride], the IC50 is below 10 µM.

As to `C#CC[C@H](N)c1noc(=O)[nH]1` [Example 1-3, (S)-3-(1-aminobut-3-ynyl)-1,2,4-oxadiazol-5(4H)-one hydrochloride], the IC50 was below 10 µM.

Regarding `C#CC[C@H](N)c1ncn[nH]1` [Example 1-4, (S)-1-(1H-1,2,4-triazol-5-yl)but-3-yn-1-amine hydrochloride], the IC50 was below 10 µM.

As for `C#CC[C@H](N)c1nc(C(F)(F)F)n[nH]1` [Example 1-5, (S)-1-(3-(trifluoromethyl)-1H-1,2,4-triazol-5-yl)but-3-yn-1-amine hydrochloride], the IC50 was above 100 µM.

As to `C#CC[C@H](N)c1nc(N)n[nH]1` [Example 1-6, (S)-5-(1-aminobut-3-ynyl)-1H-1,2,4-triazol-3-amine hydrochloride], the IC50 is above 100 µM.

Regarding `C#CC[C@H](N)C(=O)Nc1nn[nH]n1` [Example 1-7, (S)-2-amino-N-(2H-tetrazol-5-yl)pent-4-ynamide], the IC50 was in the range of 10 to 100 µM.

For the compound `C#CC[C@H](N)C(=O)NS(=O)(=O)c1ccccc1` [Example 1-8, (S)-2-amino-N-(phenylsulfonyl)pent-4-ynamide hydrochloride], the IC50 lay in the range of 10 to 100 µM.

Turning to `C#CC[C@H](N)C(=O)NS(C)(=O)=O` [Example 1-9, (S)-2-amino-N-(methylsulfonyl)pent-4-ynamide hydrochloride], the IC50 is 10 to 100 µM.

Turning to `CN(C)CCCN(N)c1nnn[nH]1` [Example 2-1, 3-(1-(1H-tetrazol-5-yl)hydrazinyl)-N,N-dimethylpropan-1-amine], the IC50 was in the range of 10 to 100 µM.

As to `CN(C)CCN(N)c1nnn[nH]1` [Example 2-2, 2-(1-(1H-tetrazol-5-yl)hydrazinyl)-N,N-dimethylethanamine], the IC50 is above 100 µM.

For the compound `C#CCN(N)c1nnn[nH]1` [Example 2-3, 5-(1-(prop-2-ynyl)hydrazinyl)-1H-tetrazole], the IC50 was below 10 µM.

Turning to `COCCCN(N)c1nnn[nH]1` [Example 2-5], the IC50 is above 100 µM.

For the compound `CCCN(N)c1nnn[nH]1` [Example 2-7], the IC50 fell in the range of 10 to 100 µM.

Regarding `NN(Cc1ccccc1)c1nnn[nH]1` [Example 2-8], the IC50 is above 100 µM.

As to `CC(C)N(N)c1nnn[nH]1` [Example 2-9], the IC50 is above 100 µM.

With `CC(C)CN(N)c1nnn[nH]1` [Example 2-10], the IC50 is above 100 µM.

For the compound `CN(N)c1nnn[nH]1` [Example 2-11], the IC50 was below 10 µM.

Turning to `NCCN(N)c1nnn[nH]1` [Example 2-13], the IC50 was below 10 µM.

In the case of `CNCCN(N)c1nnn[nH]1` [Example 2-14], the IC50 fell in the range of 10 to 100 µM.

Consider `CNCCCN(N)c1nnn[nH]1` [Example 2-15], for which the IC50 was below 10 µM.

Turning to `C(=N\Nc1nnn[nH]1)/c1ccccc1` [Example 2-17, (E)-5-(2-benzylidenehydrazinyl)-1H-tetrazole], the IC50 is 10 to 100 µM.

On to `CN(C)c1ccc(/C=N/Nc2nnn[nH]2)cc1` [Example 2-18], for which the IC50 lay in the range of 10 to 100 µM.

Regarding `Clc1ccc(/C=N/Nc2nnn[nH]2)c(Cl)c1` [Example 2-19], the IC50 was above 100 µM.

As to `Clc1ccc(/C=N/Nc2nnn[nH]2)cc1` [Example 2-20], the IC50 was below 10 µM.

As for `CC(C)=NNc1nnn[nH]1` [Example 2-21], the IC50 is below 10 µM.

Turning to `C/C(=N\Nc1nnn[nH]1)c1ccc(N(C)C)cc1` [Example 2-22], the IC50 is below 10 µM.

In the case of `C1CCC(=NNc2nnn[nH]2)CC1` [Example 2-23], the IC50 is below 10 µM.

Turning to `C1CCC(=NNc2nnn[nH]2)C1` [Example 2-24], the IC50 was below 10 µM.

For `CC/C(C)=N/Nc1nnn[nH]1` [Example 2-25], the IC50 is below 10 µM.

`CN(C)c1ccc(C(=O)C/C=N/Nc2nnn[nH]2)cc1` [Example 2-26, (E)-3-(2-(1H-tetrazol-5-yl)hydrazono)-1-(4-(dimethylamino)phenyl)propan-1-one]: the IC50 was below 10 µM.

Consider `CN(C)c1ccc(/C=N/N(C)c2nnn[nH]2)cc1` [Example 2-27, (E)-N,N-dimethyl-4-((2-methyl-2-(1H-tetrazol-5-yl)hydrazono)methyl)aniline], for which the IC50 lay in the range of 10 to 100 µM.

In the case of `CC(C)=NN(C)c1nnn[nH]1` [Example 2-28, 5-(1-methyl-2-(propan-2-ylidene)hydrazinyl)-1H-tetrazole], the IC50 was below 10 µM.

Regarding `CCN(N)c1ncn[nH]1` [Example 2-31, 5-(1-ethylhydrazinyl)-1H-1,2,4-triazole], the IC50 is above 100 µM.

`CN(N)c1noc(=O)[nH]1` [Example 2-32, 3-(1-methylhydrazinyl)-1,2,4-oxadiazol-5(4H)-one hydrochloride]: the IC50 lay in the range of 10 to 100 µM.

Turning to `CCN(N)C(=O)c1nnn[nH]1` [Example 2-33, N-ethyl-1H-tetrazole-5-carbohydrazide], the IC50 is above 100 µM.

On to `CCN(N)C(=O)Nc1nnn[nH]1` [Example 2-34, 1-ethyl-N-(1H-tetrazol-5-yl)hydrazinecarboxamide], for which the IC50 is above 100 µM.

With `CCN(N)C(=O)NS(=O)(=O)c1ccccc1` [Example 2-35, 1-ethyl-N-(phenylsulfonyl)hydrazinecarboxamide], the IC50 was above 100 µM.

What is called IC50 is the concentration at which inhibition is half-maximal.
